Results published in patent publication US5958875A, “Synthetic peptides derivatives with nerve growth factor-like neurotrophic activity” (The Regents of the University of California, priority 1996, dated 1999).
“Also recorded” adds a separate entry of the source.

B1: NGF: Mouse submaxillary β-NGF purified via 7S NGF (protein, UniProt P01139 122-241, looked up)
Beta-nerve growth factor: SSTHPVFHMGEFSVCDSVSVWVGDKTTATDIKGKEVTVLAEVNINNSVFRQYFFETKCRASNPVESGCRGIDSKHWNSYCTTTHTFVKALTTDEKQAAWRFIRIDTACVCVLSRKATRRG
modifications: Beta-nerve growth factor
notes: Mouse submaxillary β-NGF purified via 7S NGF

Columns and labels:
Chick embryo DRG neurons [1] = assay: morphological/MTT assay of neuronal survival; format: cell-based; settings: HPLC fractions of cyclized/oxidized, scrambled and linear P7
Procedure: (§1) Bioassays were performed as previously described (Manthorpe et al, "An automated colorimetric microassay for neuronotrophic factors", Dev. Brain Res. 25:191-198 (1986)). Dorsal root ganglia were dissected from embryonic day 8 chick embryos and placed in calcium and magnesium-free Dulbecco's balanced salt solution on ice. […] During this incubation non-neuronal cells (Schwann cells, fibroblasts) more readily attached to the substratum leaving a supernatant containing an enriched neuronal population (80-85% neurons). […]
(§2) The bioassays used for measuring the NGF agonist activity of the compounds of this invention were initially characterized using NGF as a control. […] The neurotrophic activity of NGF is most easily assessed by measuring the number of cells surviving and bearing neurites; however, the lack of neurites in peptide-supported cultures required the use of additional criteria to assess peptide effect. In order to more accurately determine neuronal survival, MTT was added to cultures at 16 hours and cultures assessed under phase contrast microscopy at 24 hours. Intact cells characteristic of surviving neurons which also contained blue MTT product were counted. […] In subsequent studies, activity of both peptides and NGF was assessed by counting the number of intact cells with blue MTT product (morphological/MTT assay) and by the automated MTT assay. […]

Chick embryo DRG neurons [2] = assay: automated MTT neurotrophic assay; format: cell-based; settings: HPLC fractions of ten cyclized/oxidized NGF 29-36 region peptides
Procedure: as §1, §2

Chick embryo DRG neurons [3] = assay: neurite outgrowth of cultured neurons; format: cell-based
Procedure: as §1
Neuronal survival and neurite outgrowth were assessed by a combination of morphological criteria described previously (Longo et al, "The in vitro biological effect of nerve growth factor is inhibited by synthetic peptides" Cell Regulation 1:189-195 (1990)) and an MTT calorimetric assay (Manthorpe et al., "An automated colorimetric microassay for neuronotrophic factors", Dev. Brain Res. 25:191-198 (1986)). […] The blue product can be quantitated by lysing cells with acid alcohol to solubilize the blue product and measuring overall optical density or by counting the number per area of intact surviving neurons with blue dye. […] For each peptide or NGF concentration, duplicate wells were counted in each bioassay and four values (two strips counted/well) averaged. In other assays, cells were lysed at 24 hours in acid alcohol and the MTT product was dissolved and quantified. […]

NGF p75 receptor = target: T1, NGF p75 receptor (Gallus gallus, UniProt P18519); assay: survival-promoting activity in the presence of p75 antiserum (antibody 9651); format: cell-based, chick; settings: p75 antiserum 1:100 final dilution; morphological/MTT assay
T1 construct: Dorsal root ganglia were dissected from embryonic day 8 chick embryos; endogenous in cells; host or cells: primary neurons dissociated from embryonic day 8 chick dorsal root ganglia
T1 sequence (P18519 20-416): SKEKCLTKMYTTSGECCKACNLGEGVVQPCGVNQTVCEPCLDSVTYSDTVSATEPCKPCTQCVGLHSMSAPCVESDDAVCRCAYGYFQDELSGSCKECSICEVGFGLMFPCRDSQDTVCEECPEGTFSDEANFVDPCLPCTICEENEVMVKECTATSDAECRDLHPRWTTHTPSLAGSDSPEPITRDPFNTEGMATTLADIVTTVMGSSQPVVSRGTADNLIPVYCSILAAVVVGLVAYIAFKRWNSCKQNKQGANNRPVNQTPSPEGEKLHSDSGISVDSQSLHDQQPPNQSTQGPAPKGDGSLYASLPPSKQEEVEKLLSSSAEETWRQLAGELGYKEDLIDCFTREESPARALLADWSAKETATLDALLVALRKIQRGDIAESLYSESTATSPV
Procedure: Antiserum (antibody 9651) directed against the third and fourth cysteine rich repeats of the extracellular domain of mouse p75 was obtained as described in Huber (infra). […] Antiserum and control non-immune serum were tested at final dilutions of 1:100 in the presence of NGF or peptide.
To determine if activity of P7 and P7-scrambled peptides was dependent on p75 , their activity in the presence of p75 antiserum (1:100 final dilution) which inhibits NGF neurotrophic activity was measured. […] In 15 bioassays, control background survival was 14±2% (S.E.) of the NGF maximum compared to a background in the presence of p75 antiserum of 13±2% in 5 of the same 15 assays.

Row | Molecule | survival-promoting activity of P7 forms (in words) (Chick embryo DRG neurons [1]) | survival-promoting activity (in words) (Chick embryo DRG neurons [2]) | neurite outgrowth (in words) (Chick embryo DRG neurons [3]) | inhibition of survival-promoting activity by p75 antiserum, average over the three concentrations tested (NGF p75 receptor) [%]
1 | IPenKGKEVCT [Peptide P7] | showed activity; also recorded: significantly greater activity than P7-scrambled peptides | highest activity at the lowest concentrations; also recorded: greatest survival-promoting activity at the lowest concentration | continued to lack neurites | 
2 | B1 |  |  |  | 40
